The values below come from patent US20160272645A1, “Heterocyclic Compounds and Methods of Use” (MEDIVATION TECHNOLOGIES, INC., priority 2013, published 2016).

One test has as its target T1, BMX/ETK (Homo sapiens, UniProt P51813).
T1 construct: purchased Reaction Biology Corporation
T1 sequence (P51813 1-675): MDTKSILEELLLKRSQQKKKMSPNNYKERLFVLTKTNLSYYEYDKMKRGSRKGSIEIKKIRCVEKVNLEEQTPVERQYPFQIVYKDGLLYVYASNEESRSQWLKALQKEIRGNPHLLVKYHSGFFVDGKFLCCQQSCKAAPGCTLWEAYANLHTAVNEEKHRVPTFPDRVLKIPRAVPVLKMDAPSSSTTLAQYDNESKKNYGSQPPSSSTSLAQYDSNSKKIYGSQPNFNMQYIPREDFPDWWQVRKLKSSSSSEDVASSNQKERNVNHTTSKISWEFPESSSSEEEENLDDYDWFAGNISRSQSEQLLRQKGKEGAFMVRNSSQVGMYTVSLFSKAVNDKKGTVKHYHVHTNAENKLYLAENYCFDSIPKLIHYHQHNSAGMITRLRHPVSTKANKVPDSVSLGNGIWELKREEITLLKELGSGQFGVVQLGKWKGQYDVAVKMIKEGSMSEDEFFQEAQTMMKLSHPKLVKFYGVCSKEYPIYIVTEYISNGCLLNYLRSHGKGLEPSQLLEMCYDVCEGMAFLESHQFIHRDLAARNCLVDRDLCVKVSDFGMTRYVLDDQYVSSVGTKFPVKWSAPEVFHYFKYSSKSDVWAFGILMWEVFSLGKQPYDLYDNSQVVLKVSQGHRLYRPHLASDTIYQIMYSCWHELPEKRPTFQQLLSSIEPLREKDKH
Kind of test: BMX/ETK kinase profiling (BTK protocol). The format is biochemical. The conditions noted are these: compound 0.3 μM; read-out: BMX/ETK @ 0.3 μM (% Inh). Here is the method:
BTK assay: In vitro profiling protein kinases was performed using the “HotSpot” assay platform. Briefly, specific kinase/substrate pairs along with required cofactors were prepared in reaction buffer. Compounds were prepared as 10 mM stock solutions in DMSO. Compounds were delivered into the reaction, followed 15-20 minutes later by addition of a mixture of ATP (Sigma, St. Louis Mo.) and ^33P ATP (Perkin Elmer, Waltham Mass.) to a final concentration of 10 μM. Reactions were carried out at RT for 120 min, followed by spotting of the reactions onto P81 ion exchange filter paper (Whatman Inc., Piscataway, N.J.). Unbound phosphate was removed by extensive washing of filters in 0.75% Phosphoric acid. […] ICso values and curve fits were obtained using Prism (GraphPad Software). Buffer Conditions: 20 mM Hepes (pH 7.5), 10 mM MgCl2, 1 mM EGTA, 0.02% Brij35, 0.02 mg/mL BSA, 0.1 mM Na3VO4, 2 mM DTT, 1% DMSO.
Compounds of the invention were profiled in a 10 dose IC50 panel against BMX/ETK, ITK and TEC kinases, provided by Reaction Biology Corporation, applied to the BTK protocol provided in Example B1.
`C=CC(=O)N(CCn1nc(-c2cc(O)cc(F)c2)c2c(N)ncnc21)c1ccccc1` [Compound 2, N-(2-(4-amino-3-(3-fluoro-5-hydroxyphenyl)-1H-pyrazolo[3,4-d]pyrimidin-1-yl)ethyl)-N-phenylacrylamide]: the inhibition at 0.3 µM turned out to be 98.5%.

Regarding `C=CC(=O)N(CCn1nc(-c2cc(O)cc(F)c2)c2c(N)ncnc21)Cc1ccccc1F` [Compound 11, N-[2-[4-amino-3-(3-fluoro-5-hydroxy-phenyl)pyrazolo[3,4-d]pyrimidin-1-yl]ethyl]-N-[(2-fluorophenyl)methyl]prop-2-enamide], the inhibition at 0.3 µM was 93.5%.

As for `C=CC(=O)N(CCn1nc(-c2cc(O)cc(F)c2)c2c(N)ncnc21)Cc1ccccc1` [Compound 5, N-(2-(4-amino-3-(3-fluoro-5-hydroxyphenyl)-1H-pyrazolo[3,4-d]pyrimidin-1-yl)ethyl)-N-benzylacrylamide], the inhibition at 0.3 µM was 92.5%.

With `C=CC(=O)N(CCn1nc(-c2cc(O)cc(F)c2)c2c(N)ncnc21)Cc1ccc(Cl)cc1` [Compound 12, N-{2-[4-amino-3-(3-fluoro-5-hydroxyphenyl)-1H-pyrazolo[3,4-d]pyrimidin-1-yl]ethyl}-N-[(4-chlorophenyl)methyl]prop-2-enamide], the inhibition at 0.3 µM came out at 94.2%.

With `C=CC(=O)N(CCn1nc(-c2cc(O)c(F)c(F)c2)c2c(N)ncnc21)Cc1ccc(Cl)cc1` [Compound 16, N-{2-[4-amino-3-(3,4-difluoro-5-hydroxyphenyl)-1H-pyrazolo[3,4-d]pyrimidin-1-yl]ethyl}-N-[(4-chlorophenyl)methyl]prop-2-enamide], the inhibition at 0.3 µM was determined as 97.2%.

For the compound `C=CC(=O)N(CCn1nc(-c2cc(O)cc(F)c2)c2c(N)ncnc21)Cc1ccc(F)cc1` [Compound 10, N-{2-[4-amino-3-(3-fluoro-5-hydroxyphenyl)-1H-pyrazolo [3,4-d]pyrimidin-1-yl]ethyl}-N-[(4-fluorophenyl)methyl]prop-2-enamide], the inhibition at 0.3 µM was 93%.

Take `Nc1ncnc2c1c(-c1cc(O)cc(F)c1)nn2CCNc1ccccc1` [Compound 1, 3-(4-amino-1-(2-(phenylamino)ethyl)-1H-pyrazolo [3,4-d]pyrimidin-3-yl)-5-fluorophenol]: the inhibition at 0.3 µM stood at 43.5%.

In the next test the test system is CD69+B220+ cells (mouse spleen cells). Nature of the test: B cell activation assay (IgD-stimulated CD69 on B220+ spleen cells, FACS). Particulars: IgD 3 μg/mL 4 h. It counts as cell-based.
Take `Nc1ncnc2c1c(-c1cc(O)cc(F)c1)nn2CCNc1ccccc1` [Compound 1, 3-(4-amino-1-(2-(phenylamino)ethyl)-1H-pyrazolo [3,4-d]pyrimidin-3-yl)-5-fluorophenol]: the IC50 (usually the concentration that inhibits the measured activity by half) came to 55.1 ± 38.3 nM.
